Starred links: 1 amine or outer side, 2 acyl side, 3 side chain; linkers in the order of their positions; H or OH if unused. Positions of bridges follow the written chain, without caps; N, C: chain ends. Non-standard residues stand in square brackets, D forms with d. Residues, ends and D or L forms follow the SMILES beside them. *: point of attachment. Orn(4R-OH,5R-OCH2CH2NMe3+) = C[N+](C)(C)CCO[C@@H](N[*:3])[C@H](O)C[C@H](N[*:1])C(=O)[*:2]; pTerphenylCO(4''-OnC5H11) = CCCCCOc1ccc(-c2ccc(-c3ccc(C(=O)*)cc3)cc2)cc1; hTyr(3S-OH,4S-OH) = N[C@H](C(=O)O)[C@H](O)[C@@H](O)c1ccc(O)cc1; Pro(3S-OH,4S-Me) = C[C@H]1CN[C@H](C(=O)O)[C@H]1O; Hyp = O=C(O)[C@@H]1C[C@@H](O)CN1
Legend:
[1] = Monkey SC local tolerability study; format: in vivo, cynomolgus monkey
Protocol: (§1) Previous toxicology studies by the IV route of administration conducted in cynomolgus monkeys have shown CD101 to be safe and well tolerated at up to at least 30 mg/kg, which generates very high systemic exposures upon initial infusion of CD101 into the bloodstream. Therefore, only local tolerability (and PK) of CD101 by SC administration required evaluation. […] Plasma concentrations were then quantified by liquid chromatography with tandem mass spectrometric detection (LC-MS/MS). Bioavailability from SC dosing was calculated by comparing the calculated area under the concentration-time profile (AUC) from SC against the AUC from IV administration of the same dose.
Therefore, a separate study was designed to evaluate the tolerability of a SC dose of CD101 as a highly concentrated solution (100 mg/mL; 30 mg/kg) in two cynomolgus monkeys. […] The drug reaches a maximum concentration within a few hours then remains nearly constant over the course of 10 days.

[2] = Previous toxicology studies by the IV route; format: in vivo, cynomolgus monkey
Protocol: as §1

C. auris = experiment: Murine model of disseminated candidiasis, C. auris infection, kidney CFU and survival; format: in vivo, Candida auris; settings: CD101 20 mg/kg IP
[3] = system: C. albicans SC-5314 biofilms; experiment: Adhesion phase biofilms (prevention), XTT metabolic activity and CSLM; format: cell-based, Candida albicans
[4] = system: C. albicans SC-5314 biofilms; experiment: Mature phase biofilms (treatment), XTT metabolic activity and CSLM; format: cell-based, Candida albicans
[5] = Pharmacokinetic profile in mice following a 10-mg/kg subcutaneous dose; format: in vivo; settings: mouse, plasma, sc
[6] = format: in vivo, rat; settings: all treatment dose and duration
Protocol: The rats were monitored at a frequency appropriate for their clinical condition. Rat weights were recorded at least once daily to ensure animals remained within ethical limits.

[7] = system: A. fumigatus strain AF293; experiment: Murine model of pulmonary aspergillosis (Example 13), terminal lung burden; format: in vivo, Aspergillus fumigatus
Protocol: A secondary endpoint for the study was terminal lung tissue burden. Immediately following confirmation of death, carcasses were frozen at −20° C. prior to tissue dissection and processing. The frozen carcasses were thawed at room temperature and the lungs removed and placed into pre-weighed bead-beating tubes containing 2 mL of PBS and subjected to mechanical disruption. Organ homogenates were diluted further in PBS and quantitatively cultured for A. fumigatus onto SABC and incubated at 30° C. for 24-48 hours. In addition, a 300 μL aliquot of the undiluted lung tissue homogenate was stored at −80° C. for possible optional assessment of burden by qPCR.

[8] = Protein binding by ultracentrifugation, human plasma; format: in vitro ADME
Protocol: Concentrations in plasma ranging from 7 to 60 μg/mL were tested and resulting samples were analyzed by LC-MS/MS.

[9] = system: A. fumigatus clinical isolates; experiment: CLSI broth microdilution (M38-A2) MEC, SENTRY clinical isolates; format: cell-based, Aspergillus fumigatus; settings: 153 A. fumigatus clinical isolates, 2014 and 2015
Text: (§2) The in vitro activity of CD101 was previously evaluated as part of the SENTRY international surveillance program using CLSI broth microdilution methodology (M38-A2, M27-A3; Pfaller, et al 2017). […] These susceptibility data were then compared graphically to CD101 plasma concentrations from studies in healthy adults, adjusted for plasma protein binding. Nonclinical efficacy in a murine model of Pneumocystis pneumonia were also considered to evaluate CD101 doses for clinical investigation of antifungal prophylaxis.
The in vitro activity of CD101 was evaluated against 153 A. fumigatus clinical isolates collected as part of the 2014 and 2015 JMI international SENTRY surveillance program. Susceptibility was determined by measuring the minimal effective concentration (MEC) values in accordance with CLSI broth microdilution guidelines (M38-A2). In vivo tissue distribution of CD101 in SD rats (N=3/time up to 5 d) after a 5 mg/kg IV CD101 dose. Plasma/tissue concentrations were measured by LC-MS/MS.

Pneumocystis spp. = experiment: Murine model of Pneumocystis pneumonia; settings: in vivo
Text: as §2

A. fumigatus AF293 [10] = experiment: Pulmonary aspergillosis, prophylaxis, neutropenic ICR mice (Examples 17, 18), survival; format: in vivo, Aspergillus fumigatus
Protocol: Intranasal infection with A. fumigatus AF293 (10^5 CFU/mouse) on Day 0. Prophylaxis CD101 as a single dose (IP; 5, 10, 20 mg/kg) or posaconazole (PO; 2 and 10 mg/kg) 1 day prior to infection. Survival monitored for 10 days.
Intranasal challenge with A. fumigatus AF293 (10^5 CFU/mouse) was initiated on Day 0 and prophylaxis with CD101 as a single dose (IP; 5, 10, 20 mg/kg) or posaconazole (PO; 2 and 10 mg/kg) was started 1 day prior to infection. Survival was monitored for 10 days.

A. fumigatus AF293 [11] = experiment: Murine model of pulmonary aspergillosis (Example 19), survival; settings: for survival time post infection, range / Mean Survival / Median Survival: 1 day pre-infection; for mice surviving to the end of the study: 6/treatment group, 10 days
[12] = CD101 0.25 and 1 μg/ml, 24 h, vs untreated
[13] = CD101 20 mg/kg IP once, 20 mg/kg
[14] = CD101 60 mg/kg IP once, 60 mg/kg

CCCCCOc1ccc(-c2ccc(-c3ccc(C(=O)N[C@H]4C[C@@H](O)[C@@H](OCC[N+](C)(C)C)NC(=O)[C@@H]5[C@@H](O)[C@@H](C)CN5C(=O)[C@H]([C@@H](C)O)NC(=O)[C@H]([C@H](O)[C@@H](O)c5ccc(O)cc5)NC(=O)[C@@H]5C[C@@H](O)CN5C(=O)[C@H]([C@@H](C)O)NC4=O)cc3)cc2)cc1 [CD101] ({pTerphenylCO(4''-OnC5H11)}-[Orn(4R-OH,5R-OCH2CH2NMe3+)]T[Hyp][hTyr(3S-OH,4S-OH)]T[Pro(3S-OH,4S-Me)]; lactam 1-C)
irritation or local (injection site) adverse toxicity ([1]; single 30 mg/kg SC (100 mg/mL)): no sign of irritation or local (injection site) adverse toxicity
bodyweight or food consumption ([1]; single 30 mg/kg SC, 10 days after administration): no effect on bodyweight or food consumption
dose safe and well tolerated [2]: at least 30 mg/kg
percent survival at the end of the study (C. auris; 2 doses, Day 14): 80%
average reduction in kidney CFU compared to fluconazole, amphotericin B, and vehicle treated groups (C. auris; Day 1 and Day 4, Day 8): 3 log
biofilm formation by metabolic activity (XTT) [3, 12]: formed significantly less biofilms compared to untreated C. albicans
thickness of biofilms ([3]; exposure to CD101, untreated control 36 μm): 4 μm
metabolic activity (XTT) of mature biofilms [4, 12]: significantly less metabolic activity
thickness of biofilms ([4]; CD101, untreated control 43 μm): 24 μm
half-life [5]: ~25 h
bioavailability ([5]; read-out: absolute bioavailability): ~50%
tolerability [6]: well tolerated with no adverse events observed
Group Geometric mean (lung burden) ([7]; CD101 5 mg/kg IP Day 0): 5.65 × 10^4 CFU/g
Log10 Group Geometric mean (lung burden) ([7]; CD101 5 mg/kg IP Day 0): 4.75 CFU/g
Log10 reduction from vehicle control ([7]; CD101 5 mg/kg IP Day 0): −0.98 CFU/g
Group Geometric mean (lung burden) ([7]; CD101 5 mg/kg IP Day −1): 3.75 × 10^4 CFU/g
Log10 Group Geometric mean (lung burden) ([7]; CD101 5 mg/kg IP Day −1): 4.57 CFU/g
Log10 reduction from vehicle control ([7]; CD101 5 mg/kg IP Day −1): −0.80 CFU/g
Group Geometric mean (lung burden) ([7]; CD101 5 mg/kg IP Day −3): 5.71 × 10^4 CFU/g
Log10 Group Geometric mean (lung burden) ([7]; CD101 5 mg/kg IP Day −3): 4.76 CFU/g
Log10 reduction from vehicle control ([7]; CD101 5 mg/kg IP Day −3): −0.98 CFU/g
Group Geometric mean (lung burden) ([7]; CD101 5 mg/kg IP Day −5): 6.36 × 10^4 CFU/g
Log10 Group Geometric mean (lung burden) ([7]; CD101 5 mg/kg IP Day −5): 4.80 CFU/g
Log10 reduction from vehicle control ([7]; CD101 5 mg/kg IP Day −5): −1.03 CFU/g
Group Geometric mean (lung burden) ([7]; CD101 10 mg/kg IP Day −1): 5.17 × 10^3 CFU/g
Log10 Group Geometric mean (lung burden) ([7]; CD101 10 mg/kg IP Day −1): 3.71 CFU/g
Log10 reduction from vehicle control ([7]; CD101 10 mg/kg IP Day −1): 0.06 CFU/g
Group Geometric mean (lung burden) ([7]; CD101 10 mg/kg IP Day −3): 7.34 × 10^3 CFU/g
Log10 Group Geometric mean (lung burden) ([7]; CD101 10 mg/kg IP Day −3): 3.87 CFU/g
Log10 reduction from vehicle control ([7]; CD101 10 mg/kg IP Day −3): −0.09 CFU/g
Group Geometric mean (lung burden) ([7]; CD101 10 mg/kg IP Day −5): 3.40 × 10^4 CFU/g
Log10 Group Geometric mean (lung burden) ([7]; CD101 10 mg/kg IP Day −5): 4.53 CFU/g
Log10 reduction from vehicle control ([7]; CD101 10 mg/kg IP Day −5): −0.76 CFU/g
Group Geometric mean (lung burden) ([7]; CD101 20 mg/kg IP Day −1): 1.12 × 10^4 CFU/g
Log10 Group Geometric mean (lung burden) ([7]; CD101 20 mg/kg IP Day −1): 4.05 CFU/g
Log10 reduction from vehicle control ([7]; CD101 20 mg/kg IP Day −1): −0.28 CFU/g
Group Geometric mean (lung burden) ([7]; CD101 20 mg/kg IP Day −3): 4.92 × 10^4 CFU/g
Log10 Group Geometric mean (lung burden) ([7]; CD101 20 mg/kg IP Day −3): 4.69 CFU/g
Log10 reduction from vehicle control ([7]; CD101 20 mg/kg IP Day −3): −0.92 CFU/g
Group Geometric mean (lung burden) ([7]; CD101 20 mg/kg IP Day −5): 8.35 × 10^3 CFU/g
Log10 Group Geometric mean (lung burden) ([7]; CD101 20 mg/kg IP Day −5): 3.92 CFU/g
Log10 reduction from vehicle control ([7]; CD101 20 mg/kg IP Day −5): −0.15 CFU/g
free fraction in human vs mouse plasma [8]: ~3 ×
percent of bound CD101, mean ([8]; human plasma): 97.4%
MEC50 [9]: 0.015 µg/mL
MEC90 [9]: 0.015 µg/mL
MEC range [9]: ≤0.0078 to 0.03 µg/mL
human equivalent doses at which Pneumocystis pneumonia was prevented in mice (Pneumocystis spp.): < 50 mg
survival rate (A. fumigatus AF293 [10]; CD101 20 mg/kg IP single dose 1 day prior to infection, 10 days): 30%
survival (A. fumigatus AF293 [10]; single CD101 dose (IP; 5, 10, 20 mg/kg) one day prior to infection): dose-dependent increase in survival rate
survival time post infection, range (A. fumigatus AF293 [11]; CD101 20 mg/kg IP once): 70 to 240 h
Mean Survival (A. fumigatus AF293 [11]; [13]): 130.4 h
Median Survival (A. fumigatus AF293 [11]; [13]): 74.7 h
mice surviving to the end of the study (A. fumigatus AF293 [11]; CD101 20 mg/kg IP): Two mice survived to the end of the study
survival time post infection, range (A. fumigatus AF293 [11]; CD101 60 mg/kg IP once): 73-240
Mean Survival (A. fumigatus AF293 [11]; [14]): 122.7 h
Median Survival (A. fumigatus AF293 [11]; [14]): 88.7 h
mice surviving to the end of the study (A. fumigatus AF293 [11]; CD101 60 mg/kg IP): A single mouse survived to the end of the study
survival (A. fumigatus AF293 [11]; CD101 20 and 60 mg/kg once one day pre-infection): slight increase in survival
animals completely cleared of CFU burden (Candida albicans SC5314; CD101 SC 1 mg/kg, by 24 hr): 4 of 5
kidney CFU compared with the vehicle control (Candida albicans SC5314; CD101 SC 1, 3, and 10 mg/kg, 24 hr): significant reduction in kidney CFU
CFU clearance (Candida albicans SC5314; CD101 SC 3 or 10 mg/kg, 24 hr): complete CFU clearance

From patent US20190307843A1, “SINGLE DOSE METHODS FOR PREVENTING AND TREATING FUNGAL INFECTIONS” (Cidara Therapeutics, Inc., priority 2016, published 2019)
